Experimental data from the supplement of paper PMC11061612.

Assays:
Assay in all cases: Bliss excess, mean over the matrix (fraction); higher = more synergy
[1] = system: NCI-H2009 (Lung Adenocarcinoma)
Summary of the method: (§1)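 Bliss excess equals the observed combination effect minus the expected value EA + EB − EA·EB, where EA and EB are the effects of each agent alone. Combination Emax is the second-highest inhibition within the matrix. Inhibition was scaled from CellTiter-Glo 2.0 luminescence, with 0 set by vehicle wells and 1 by blank wells, after 72 hours of two-drug dosing of cells plated in 1536-well plates.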

[2] = system: SW1463 (Colorectal Carcinoma)
Summary of the method: as §1

[3] = system: SBC-3 (Small Cell Lung Carcinoma)
Summary of the method: as §1

NCI-H2452 (Mesothelioma) = system: NCI-H2452 (Mesothelioma)
Summary of the method: as §1

[4] = system: L-363 (Plasma Cell Myeloma)
Summary of the method: as §1

[5] = system: TK (B-Cell Non-Hodgkin's Lymphoma)
Summary of the method: as §1

[6] = system: OCI-M1 (Acute Myeloid Leukemia)
Summary of the method: as §1

[7] = system: NCI-H1944 (Lung Adenocarcinoma)
Summary of the method: as §1

[8] = system: JURL-MK1 (Chronic Myelogenous Leukemia)
Summary of the method: as §1

[9] = system: NTERA-2-cl-D1 (Other Solid Carcinomas)
Summary of the method: as §1

MG-63 (Osteosarcoma) = system: MG-63 (Osteosarcoma)
Summary of the method: as §1

[10] = system: NCI-H1435 (Non-Small Cell Lung Carcinoma)
Summary of the method: as §1

[11] = system: CAL-85-1 (Breast Carcinoma)
Summary of the method: as §1

[12] = system: ATN-1 (T-Lymphoblastic Leukemia)
Summary of the method: as §1

[13] = system: NCI-H835 (Other Solid Carcinomas)
Summary of the method: as §1

[14] = system: C2BBe1 (Colorectal Carcinoma)
Summary of the method: as §1

[15] = system: BT-474 (Breast Carcinoma)
Summary of the method: as §1

[16] = system: COR-L105 (Lung Adenocarcinoma)
Summary of the method: as §1

[17] = system: IGROV-1 (Ovarian Carcinoma)
Summary of the method: as §1

C32 (Melanoma) = system: C32 (Melanoma)
Summary of the method: as §1

Compound	Bliss excess [1]	Bliss excess [2]	Bliss excess [3]	Bliss excess (NCI-H2452 (Mesothelioma))	Bliss excess [4]	Bliss excess [5]	Bliss excess [6]	Bliss excess [7]	Bliss excess [8]	Bliss excess [9]	Bliss excess (MG-63 (Osteosarcoma))	Bliss excess [10]	Bliss excess [11]	Bliss excess [12]	Bliss excess [13]	Bliss excess [14]	Bliss excess [15]	Bliss excess [16]	Bliss excess [17]	Bliss excess (C32 (Melanoma))
NC1(C(=O)N[C@@H](CCO)c2ccc(Cl)cc2)CCN(c2ncnc3[nH]ccc23)CC1 [Capivasertib] + CC(C)n1c(=O)n(C)c2cnc3cc(F)c(-c4ccc(OCCCN5CCCCC5)nc4)cc3c21 [AZD1390] (first compound max 10 µM, 7x7, partner max 0.3 µM)	-0.0648	-0.0196	-0.0144	-0.0922	-0.0749	-0.0045	-0.0268	-0.0893	-0.0489	0.0115	-0.0844	-0.0336	-0.0213	-0.062	-0.179	-0.0856	-0.0406	-0.0635	-0.0147	-0.0343
COc1cccc(OCCCN)c1-c1cc(Nc2cnc(C#N)cn2)n[nH]1 [Prexasertib] + C=CCn1c(=O)c2cnc(Nc3ccc(N4CCN(C)CC4)cc3)nc2n1-c1cccc(C(C)(C)O)n1 [AZD1775] (first compound max 1 µM, partner max 1 µM)	0.0914	0.0656	0.146	0.0473	0.0204	-0.0252	0.0152	0.077	0.0271	0.19	0.141	0.0718	0.124	0.0134	0.105	0.0545	-0.0223	0.0157	-0.0343	-0.0206
COc1cccc(OCCCN)c1-c1cc(Nc2cnc(C#N)cn2)n[nH]1 [Prexasertib] + O=C(c1cc(Cc2n[nH]c(=O)c3ccccc23)ccc1F)N1CCN(C(=O)C2CC2)CC1 [Olaparib] (first compound max 1 µM, 7x7, partner max 10 µM)	-0.0185	-0.0549	-0.0544	-0.0874	-0.0157	-0.0837	-0.0322	-0.0498	-0.0042	0.0401	-0.0745	0.0045	-0.0209	-0.0078	-0.045	-0.0704	-0.037	-0.0135	-0.111	-0.0459
CS(=O)(=O)CCNCc1ccc(-c2ccc3ncnc(Nc4ccc(OCc5cccc(F)c5)c(Cl)c4)c3c2)o1 [Lapatinib] + C[C@@H](Oc1cc(-c2cnn(C3CCNCC3)c2)cnc1N)c1c(Cl)ccc(F)c1Cl [Crizotinib] (first compound max 10 µM, 7x7, partner max 10 µM)	-0.0506	0.0138	-0.0761	-0.0932	-0.0208	0.0129	-0.0347	0.015	0.003	-0.0579	-0.064	0.061	0.0028	0.0298	-0.117	-0.018	0.0284	-0.004	-0.0518	-0.0067
COc1cccc(OCCCN)c1-c1cc(Nc2cnc(C#N)cn2)n[nH]1 [Prexasertib] + Cc1cc2ncnn2cc1Nc1ncc2c(n1)n(C1CCOCC1)c(=O)n2C [AZD7648] (first compound max 1 µM, 7x7, partner max 10 µM)	-0.027	-0.0161	-0.0512	-0.0623	-0.0437	-0.0477	-0.0483	-0.0028	0.0485	-0.0688	-0.0128	0.0115	0.0382	0.0136	-0.0346	0.0318	-0.0188	-0.0549	-0.0264	-0.004
NC1(C(=O)N[C@@H](CCO)c2ccc(Cl)cc2)CCN(c2ncnc3[nH]ccc23)CC1 [Capivasertib] + COc1nnc2ccc(N3CCC(c4ccc(OCCN5CCN(C)C(=O)[C@H]5C)cc4)CC3)nn12 [AZD5153] (first compound max 10 µM, 7x7, partner max 1 µM)	0.0374	-0.0021	-0.0135	-0.0192	0.108	0.012	-0.0026	-0.0124	0.0101	-0.0097	-0.0237	-0.025	0.0009	-0.0444	0.0792	-0.0365	0.0761	0.0024	-0.0221	0.0434
CC(=O)c1c(C)c2cnc(Nc3ccc(N4CCNCC4)cn3)nc2n(C2CCCC2)c1=O [Palbociclib] + Cc1c2c(nn1C)CSCc1cc(n(C)n1)CSc1cc(c3ccccc3c1)OCCCc1c(C(=O)O)n(C)c3c-2c(Cl)ccc13 [AZD5991] (first compound max 10 µM, 7x7, partner max 1 µM)	-0.0567	-0.0666	-0.043	-0.0651	-0.0147	-0.0191	0.033	0.0187	-0.112	0.019	0.0096	-0.0308	-0.0101	-0.0498	-0.0004	-0.0782	-0.0924	-0.0088	0.0122	-0.0069
CN(C)CCCOc1ccc(-c2ccc3ncc4c(c3c2)n(C2CCOCC2)c(=O)n4C)cn1 [AZD0156] + O=C(c1cc(Cc2n[nH]c(=O)c3ccccc23)ccc1F)N1CCN(C(=O)C2CC2)CC1 [Olaparib] (first compound max 3 µM, partner max 3 µM)	0.16	-0.035	0.206	0.12	-0.0073	0.0213	0.17	0.106	0.157	0.0068	0.0183	-0.0277	-0.039	0.011	0.0053	-0.0428	-0.0189	0.0527	0.0623	-0.035
COc1nnc2ccc(N3CCC(c4ccc(OCCN5CCN(C)C(=O)[C@H]5C)cc4)CC3)nn12 [AZD5153] + Cc1c2c(nn1C)CSCc1cc(n(C)n1)CSc1cc(c3ccccc3c1)OCCCc1c(C(=O)O)n(C)c3c-2c(Cl)ccc13 [AZD5991] (first compound max 1 µM, 7x7, partner max 1 µM)	-0.0271	-0.0631	-0.0503	-0.0265	-0.007	-0.0019	-0.018	-0.0461	-0.055	0.0698	-0.0302	-0.0108	-0.0157	-0.0304	-0.115	-0.041	-0.0012	-0.0134	-0.0069	0.142
NC1(C(=O)N[C@@H](CCO)c2ccc(Cl)cc2)CCN(c2ncnc3[nH]ccc23)CC1 [Capivasertib] + C[C@@H]1COCCN1C2=NC(=NC(=C2)C3(CC3)[S@](=N)(=O)C)C4=C5C=CNC5=NC=C4 [AZD6738] (first compound max 10 µM, 7x7, partner max 10 µM)	-0.0483	-0.101	-0.0479	-0.0827	-0.0201	-0.0045	0.0211	-0.0268	0.0117	-0.0258	-0.0524	0.0077	-0.0062	-0.0127	-0.072	-0.0722	0.0314	-0.034	-0.0883	-0.0288
